This passage reports Emax and EC50 results from patent US20190330226A1, “POSITIVE ALLOSTERIC MODULATORS OF THE MUSCARINIC ACETYLCHOLINE RECEPTOR M1” (Vanderbilt University, priority 2018, published 2019).

One may read the Emax as the maximal effect, on the per cent scale that the assay sets. Broadly, the EC50 is the midpoint of the concentration-response curve.

The target in the assay is T1, human mAChR M1 (Homo sapiens, UniProt P11229).
T1 construct: host or cells: CHO-K1 (ATCC), stably transfected using Lipofectamine 2000
T1 sequence (P11229 1-460): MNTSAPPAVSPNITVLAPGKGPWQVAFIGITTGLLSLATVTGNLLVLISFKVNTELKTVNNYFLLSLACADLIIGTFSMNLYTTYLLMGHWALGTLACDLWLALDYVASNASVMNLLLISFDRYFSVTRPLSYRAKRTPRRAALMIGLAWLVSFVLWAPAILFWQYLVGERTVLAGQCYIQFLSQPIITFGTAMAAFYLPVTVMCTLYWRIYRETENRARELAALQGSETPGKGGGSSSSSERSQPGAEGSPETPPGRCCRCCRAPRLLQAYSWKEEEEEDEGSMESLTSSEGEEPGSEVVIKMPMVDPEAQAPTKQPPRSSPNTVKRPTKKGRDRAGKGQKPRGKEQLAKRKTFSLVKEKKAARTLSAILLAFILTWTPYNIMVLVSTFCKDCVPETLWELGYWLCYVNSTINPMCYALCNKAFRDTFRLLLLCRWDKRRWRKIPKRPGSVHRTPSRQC
Kind of assay: mAChR M1 cell-based functional assay (calcium mobilization, Fluo-4, FDSS). The note with it: CHO-K1 cells stably expressing hM1, calcium flux; for Emax: PAM mode with EC20 acetylcholine; for EC50: concentration-dependent increase in the EC20 acetylcholine response. From the text:
Chinese hamster ovary (CHO-K1) cells stably expressing rat (r)M1 were purchased from the American Type Culture Collection and cultured according to their indicated protocol. CHO cells stably expressing human (h)M2, hM3, and hM5 were described previously (Levey, et al., 1991); hM1 and hM4 cDNAs were purchased from Missouri S&T cDNA Resource; rM4 cDNA was provided by T. I. Bonner (National Institutes of Health, Bethesda, Md.). rM2 and rM3 were cloned from a rat brain cDNA library and sequence verified. hM1, rM2, rM3, hM4, and rM4 cDNAs were used to stably transfect CHO-K1 cells purchased from the American Type Culture Collection using Lipofectamine 2000. To make stable rM2, hM2, rM3, hM4, and rM4 cell lines for use in calcium mobilization assays, these cells also were stably transfected with a chimeric G-protein (Gqi5) (provided by B. R. Conklin, University of California, San Francisco) using Lipofectamine 2000. rM1, hM1, rM3, hM3, rM5, and hM5 cells were grown in Ham's F-12 medium containing 10% heat-inactivated fetal bovine serum (FBS), 20 mM HEPES, and 50 µg/mL G418 sulfate. rM2-Gqi5, hM2-Gqi5, and hM4-Gqi5 cells were grown in the same medium also containing 500 μg/mL Hygromycin B. Stable rM4-Gqi5 cells were grown in DMEM containing 10% heat-inactivated FBS, 20 mM HEPES, 400 μg/mL G418 sulfate, and 500 μg/mL Hygromycin B.
For high throughput measurement of agonist-evoked increases in intracellular calcium, CHO-K1 cells stably expressing muscarinic receptors were plated in growth medium lacking G418 and hygromycin at 15,000 cells/20 μL/well in Greiner 384-well black-walled, tissue culture (TC)-treated, clear-bottom plates (VWR). Cells were incubated overnight at 37° C. and 5% CO2. The next day, cells were washed using an ELX 405 (BioTek) with four washes ([…]) of assay buffer then aspirated to 20 μL. Next, 20 μL of 16 μM Fluo-4/acetoxymethyl ester (Invitrogen, Carlsbad, Calif.) prepared as a 2.3 mM stock in DMSO and mixed in a 1:1 ratio with 10% (w/v) Pluronic F-127 and diluted in assay buffer was added to the wells and the cell plates were incubated for 50 min at 37° C. and 5% CO2. Dye was removed by washing with the ELX 405 (four 80 μL washes of assay buffer) then aspirated to 20 μL. Compound master plates were formatted in an 11 point CRC format (1:3 dilutions) in 100% DMSO with a starting concentration of 10 mM using the BRAVO liquid handler (Agilent). Test compound CRCs were then transferred to daughter plates (240 nL) using the Echo acoustic plate reformatter (Labcyte, Sunnyvale, Calif.) and then diluted into assay buffer (40 μL) to a 2× stock using a Thermo Fisher Combi (Thermo Fisher Scientific, Waltham, Mass.).
Calcium flux was measured using the Functional Drug Screening System (FDSS) 6000 (Hamamatsu Corporation, Tokyo, Japan) as an increase in the fluorescent static ratio. Compounds were applied to cells (20 μL, 2×) using the automated system of the FDSS 6000 at 4 s into the 300 s protocol and the data were collected at 1 Hz. At 144 s into the 300s protocol, 10 μL of an EC20 concentration of the muscarinic receptor agonist acetylcholine was added (5×), followed by the addition of 12 μL an EC80 concentration of acetylcholine at the 230 s time point (5×). Agonist activity was analyzed as a concentration-dependent increase in calcium mobilization upon compound addition. Positive allosteric modulator activity was analyzed as a concentration-dependent increase in the EC20 acetylcholine response. Antagonist activity was analyzed as a concentration-dependent decrease in the EC80 acetylcholine response. Concentration-response curves were generated using a four-parameter logistical equation in XLfit curve fitting software (IDBS, Bridgewater, N.J.) for Excel (Microsoft, Redmond, Wash.) or Prism (GraphPad Software, Inc., San Diego, Calif.).
Activity (EC50 and Emax) was determined in the mAChR M1 cell-based functional assay as described above and the data are shown in Table 2. […]
On the technique in general: Calcium assays in cells follow changes in intracellular calcium, usually with a dye or a luminescent sensor.

On to `COCCn1cc2c(n1)C(=O)N(Cc1c(F)cc(-c3cccc4nn(C)cc34)cc1F)C2` [Compound 19, 5-(2,6-difluoro-4-(2-methyl-2H-indazol-4-yl)benzyl)-2-(2-methoxyethyl)-4,5-dihydropyrrolo[3,4-c]pyrazol-6(2H)-one], for which the Emax is 45%.
Consider `Cn1cc2c(-c3cc(F)c(CN4Cc5cnn(CCN6CCCC6)c5C4=O)c(F)c3)cccc2n1` [Compound 20, 5-(2,6-difluoro-4-(2-methyl-2H-indazol-4-yl)benzyl)-1-(2-(pyrrolidin-1-yl)ethyl)-4,5-dihydropyrrolo[3,4-c]pyrazol-6(1H)-one], for which the Emax was 91% and the EC50 amounted to 0.73 µM.
`Cn1cc2c(-c3cc(F)c(CN4Cc5cn(CCN6CCCC6)nc5C4=O)c(F)c3)cccc2n1` [Compound 21, 5-(2,6-difluoro-4-(2-methyl-2H-indazol-4-yl)benzyl)-2-(2-(pyrrolidin-1-yl)ethyl)-4,5-dihydropyrrolo[3,4-c]pyrazol-6(2H)-one]: the Emax turned out to be 57% and the EC50 worked out at 5.18 µM.
The corresponding values for `Cn1cc2cc(-c3cc(F)c(CN4Cc5ncsc5C4=O)c(F)c3)ccc2n1` [Compound 22, 5-(2,6-difluoro-4-(2-methyl-2H-indazol-5-yl)benzyl)-4,5-dihydro-6H-pyrrolo[3,4-d]thiazol-6-one] are 28% and 0.37 µM.
As for `Cc1ccc(-c2cc(F)c(CN3Cc4ncsc4C3=O)c(F)c2)cn1` [Compound 23, 5-(2,6-difluoro-4-(6-methylpyridin-3-yl)benzyl)-4,5-dihydro-6H-pyrrolo[3,4-d]thiazol-6-one], the Emax is 27%.
On to `Cn1cc2c(-c3cc(F)c(CN4Cc5cnn(CCO)c5C4=O)c(F)c3)cccc2n1` [Compound 24, 5-(2,6-difluoro-4-(2-methyl-2H-indazol-4-yl)benzyl)-1-(2-hydroxyethyl)-4,5-dihydropyrrolo[3,4-c]pyrazol-6(1H)-one], for which the Emax amounted to 80% and the EC50 stood at 0.91 µM.
In the case of `Cn1cc2c(-c3cc(F)c(CN4Cc5cn(CCO)nc5C4=O)c(F)c3)cccc2n1` [Compound 25, 5-(2,6-difluoro-4-(2-methyl-2H-indazol-4-yl)benzyl)-2-(2-hydroxyethyl)-4,5-dihydropyrrolo[3,4-c]pyrazol-6(2H)-one], the Emax turned out to be 74% and the EC50 came to 9.15 µM.
On to `Cn1cc2cc(-c3cc(F)c(CN4Cc5sccc5C4=O)c(F)c3)ccc2n1` [Compound 26, 5-(2,6-difluoro-4-(2-methyl-2H-indazol-5-yl)benzyl)-5,6-dihydro-4H-thieno[2,3-c]pyrrol-4-one], for which the Emax was 59% and the EC50 was found to be 1.02 µM.
As to `Cn1cnc2ccc(-c3cc(F)c(CN4Cc5sccc5C4=O)c(F)c3)cc21` [Compound 27, 5-(2,6-difluoro-4-(1-methyl-1H-benzo[d]imidazol-6-yl)benzyl)-5,6-dihydro-4H-thieno[2,3-c]pyrrol-4-one], the Emax worked out at 60% and the EC50 was determined as 2.87 µM.
Regarding `Cc1n[nH]c2ccc(-c3cc(F)c(CN4Cc5sccc5C4=O)c(F)c3)cc12` [Compound 28, 5-(2,6-difluoro-4-(3-methyl-1H-indazol-5-yl)benzyl)-5,6-dihydro-4H-thieno[2,3-c]pyrrol-4-one], the Emax turned out to be 57%.
In the case of `Cc1cc(-c2cc(F)c(CN3Cc4sccc4C3=O)c(F)c2)cc2cn[nH]c12` [Compound 29, 5-(2,6-difluoro-4-(7-methyl-1H-indazol-5-yl)benzyl)-5,6-dihydro-4H-thieno[2,3-c]pyrrol-4-one], the Emax turned out to be 45%.
Turning to `O=C1c2ccsc2CN1Cc1c(F)cc(-c2ccc3nccn3c2)cc1F` [Compound 30, 5-(2,6-difluoro-4-(imidazo[1,2-a]pyridin-6-yl)benzyl)-5,6-dihydro-4H-thieno[2,3-c]pyrrol-4-one], the Emax was determined as 30% and the EC50 was 0.5 µM.
Take `Cn1cc2cc(-c3cc(F)c(CN4Cc5ccsc5C4=O)c(F)c3)ccc2n1` [Compound 31, 5-(2,6-difluoro-4-(2-methyl-2H-indazol-5-yl)benzyl)-4,5-dihydro-6H-thieno[2,3-c]pyrrol-6-one]: the Emax turned out to be 40% and the EC50 is 0.246 µM.
On to `Cn1cc(-c2ccc(CN3Cc4ccsc4C3=O)c(F)c2)cn1` [Compound 32, 5-(2-fluoro-4-(1-methyl-1H-pyrazol-4-yl)benzyl)-4,5-dihydro-6H-thieno[2,3-c]pyrrol-6-one], for which the Emax was determined as 67% and the EC50 stood at 4.9 µM.
Regarding `Cn1cc2cc(-c3cc(F)c(CN4Cc5scc(Br)c5C4=O)c(F)c3)ccc2n1` [Compound 33, 3-bromo-5-(2,6-difluoro-4-(2-methyl-2H-indazol-5-yl)benzyl)-5,6-dihydro-4H-thieno[2,3-c]pyrrol-4-one], the Emax stood at 56% and the EC50 came out at 2.23 µM.
On to `Cn1cc(-c2cc(F)c(CN3Cc4cn(CC5CCCO5)nc4C3=O)c(F)c2)cn1` (stereo not shown) [Compound 34, 5-(2,6-difluoro-4-(1-methyl-1H-pyrazol-4-yl)benzyl)-2-((tetrahydrofuran-2-yl)methyl)-4,5-dihydropyrrolo[3,4-c]pyrazol-6(2H)-one], for which the Emax turned out to be 35%.
In the case of `Cn1cc(-c2cc(F)c(CN3Cc4cnn(CC5CCCO5)c4C3=O)c(F)c2)cn1` (stereo not shown) [Compound 35, 5-(2,6-difluoro-4-(1-methyl-1H-pyrazol-4-yl)benzyl)-1-((tetrahydrofuran-2-yl)methyl)-4,5-dihydropyrrolo[3,4-c]pyrazol-6(1H)-one], the Emax was found to be 73%.
For `Cn1cc2cc(-c3cc(F)c(CN4Cc5cnn(CC6CCCO6)c5C4=O)c(F)c3)ccc2n1` (stereo not shown) [Compound 36, 5-(2,6-difluoro-4-(2-methyl-2H-indazol-5-yl)benzyl)-1-((tetrahydrofuran-2-yl)methyl)-4,5-dihydropyrrolo[3,4-c]pyrazol-6(1H)-one], the Emax amounted to 82% and the EC50 was 1.48 µM.
For `Cc1nn(C)cc1-c1cc(F)c(CN2Cc3cnn(CC4CCCO4)c3C2=O)c(F)c1` (stereo not shown) [Compound 37, 5-(4-(1,3-dimethyl-1H-pyrazol-4-yl)-2,6-difluorobenzyl)-1-((tetrahydrofuran-2-yl)methyl)-4,5-dihydropyrrolo[3,4-c]pyrazol-6(1H)-one] the same measures were 77% and 3.22 µM.
For `Cn1cc2cccc(-c3cc(F)c(CN4Cc5cnn(CC6CCCO6)c5C4=O)c(F)c3)c2n1` (stereo not shown) [Compound 38, 5-(2,6-difluoro-4-(2-methyl-2H-indazol-7-yl)benzyl)-1-((tetrahydrofuran-2-yl)methyl)-4,5-dihydropyrrolo[3,4-c]pyrazol-6(1H)-one], the Emax turned out to be 66% and the EC50 was found to be 6.89 µM.
